# Reference: US12428456B2, “Peptide directed protein knockdown” (University of British Columbia, priority 2012, dated 2025)
# Read-outs that look alike come from different tables or passages of the source.
# Tests used:
# [1] = target: T1, DAPK1 (Rattus norvegicus, UniProt F1LNN8); assay: Knockdown of native DAPK1 in cultured cortical neurons, NMDA stimulation (immunoblot); assay type: cell-based; conditions: synthetic peptide 25 μM, prior to and during NMDA
# T1 construct: decreased the level of endogenous DAPK1 in cultured cortical neurons following NMDA treatment; endogenous in cells; host or cells: primary rat cortical neurons (E18, 14-18 DIV)
# Experimental: Cell culture, transfection and treatments. HEK293 cells and COS7 cells were cultured in DMEM (Sigma, D6429-24X500ML) supplemented with 10% Fetal Bovine Serum (Invitrogen, 12483020). Cells were grown to 80% confluence in 6-well plates before transiently transfected with Lipofectamine 2000 (Invitrogen, 11668019), as according to the manufacturer's protocols. Cells were transfected for either 24 or 48 hours at 37° C. before harvesting for biochemical analyses. For experiments involving TAT or His-TAT peptides, unless otherwise specified, peptides were added 1 hour prior to NMDA insult.
# (§1) Primary culture of cortical neurons. Dissociated cultures of rat cortical neurons were prepared from Sprague Dawley rat embryos collected from euthanized mothers 18 days after fertilization as previously described^35. Briefly, hippocampi and cerebral cortices were extracted from embryos and incubated for 30 min in 0.25% trypsin-EDTA. Digested tissues were dissociated by trituration and plated on poly-D-lysine-coated (Sigma, P7280) plates. Plating medium consisted of Neurobasal Media (Invitrogen, 21103-049) supplemented with B27 (Invitrogen, 17504044), glutamic acid (Sigma, G8415) and GlutaMax (Invitrogen, 35050-061). After 2 days, 2/3 of the media was replaced with fresh Neurobasal feeding media consisting of Neurobasal Media, B27 and GlutaMax. Cultures were maintained at 37° C. in a humidified 5% CO2 atmosphere. Mature neurons (14-18 days in vitro (DIV)) were used for experiments.
# (§2) Immunoblotting. Immunoblotting assays were carried out as previously described^36. Briefly, proteins were extracted from neurons using a lysis buffer composed of 150 mM NaCl, 50 mM Tris, pH 7.4, 0.1% SDS, 1% NP-40, 0.5% sodium deoxycholate, 1 mM EDTA, 1 mM Na3VO4, and proteinase inhibitor mixture (Thermo Fisher, PI78442). Samples were separated on 10% SDS-PAGE gels, transferred to polyvinylidene difluoride (PVDF) membrane, and immunoblotted with respective antibodies. Blots were enhanced with chemiluminescence detection reagent kit (Fisher, 32106) and visualized with Bio-Rad imager and Quantity One software. Signal intensities from each band was quantified with Bio-Rad Image Lab software, and the bands were analyzed relative to their controls from the same membrane and experiment.
# Cellular fractionation. Cytoplasm/nuclei fractionation was performed on cultured cortical neurons (6.0*10^6 cells/100 mm dish). Briefly, cells were washed with ice cold PBS and rocked in lysis buffer for 30 min. Cells were then collected and centrifuged to obtain a rough cytoplasmic and nuclear fraction. Supernatant was collected and further centrifuged to obtain purified cytosolic fraction. The original pellet was washed and vortexed to obtain a nuclear lysis. Mitochondrial fractionation was performed as described in the Pierce Mitochondria Isolation Kit for Cultured Cells (Thermo Scientific, 89874) user guide. Purity was assessed by immunoblotting for the presence of LB1 (nucleus only), HSP90 (cytosol only) and VDAC1 (mitochondria only).
# [2] = target: T1, DAPK1; assay: DAPK1 knockdown in brain, rat MCAO focal ischemia model (immunoblot, immunohistochemistry); assay type: in vivo; conditions: 10 mg/kg i.v., ischemic vs contralateral side; listed as TATNR2B
# Experimental: as §2
# (§3) Middle cerebral arterial occlusion (MCAO). All animal experiments were performed according to protocols approved by the University of British Columbia Committee on Animal Care. Adult naïve male Sprague-Dawley rats (300-350 g, Charles River) were group housed (3-4 animals/cage) in 12 hr:12 hr light-dark cycles and had free access to rat pellet chow and water prior to surgery. Reversible MCAO with suture-insertion method was performed as described previously^37. Briefly, a nylon suture with a blunted tip was entered through the right external carotid artery of anesthetized rats and advanced to the right internal carotid artery until the right MCA was occluded. After 60 min of occlusion, the rat was reanesthetized to facilitate the removal of the occlusion. Body temperature was maintained at between 36.5 and 37.5° C. throughout the surgical procedure with a heating pad. Peptides (10 mg/kg) or vehicle control (saline; 1 ml/kg) was injected via the jugular vein. Rats were then sewn up and allowed to recover until tissue collection.
# Immunohistochemistry. Rats were anesthetized and perfused with double-filtered saline and 4% paraformaldehyde (PFA) in PBS. Brains were collected, immersed in 4% PFA before subjected to cryoprotection by 30% sucrose/PBS. After the brains had sunk, they were flash frozen with dry ice before overnight freezing in −80° C. They were then sliced at […] with a cryostat, and stored in 0.1 μM PB (sodium phosphate dibasic and sodium phosphate monobasic). Prior to staining, slices were washed 3×10 min with 0.1 μM PB, permeablized and blocked in 0.1 μM PB with 1% BSA and 0.2% Triton X-100 for 30 min, and stained with anti-DAPK1 (1:100) at 4° C. for 3 days. They were then washed and stained with Alexa 488 (1:1000) at 4° C. overnight before washing and mounting.
# [3] = test system: rat middle cerebral artery occlusion focal ischemia model; assay: Ischemic brain damage, rat MCAO focal ischemia model (H&E staining); assay type: in vivo; conditions: 10 mg/kg i.v., 60 min MCAO
# Experimental: as §3
# Hematoxylin & Eosin (H&E) staining. Slices were mounted and dried on glass slides prior staining. Slides were immersed in Hematoxylin solution (Sigma, MHS1-100ML) for 15 min away from light, followed by 5 min blueing under tap water. Slides were then counterstained with 0.5% Eosin Y (Sigma, E4009-5G) and dipped in ddH2O until the eosin stopped streaking. […]
# [4] = test system: cortical neurons; assay type: cell-based; conditions: H2O2 300 μM 30 min
# Experimental: as §1, with “Mature neurons (14-18 days in vitro (DIV)) were used for experiments.” left out
# Assessment of neuronal death. Cytotoxic damage of primary neuron cultures was assessed by measuring LDH released into culture media as previously described^38. […] Peptide toxicity was assessed by treating neurons with 25 μM synthetic peptide or 200 μM recombinant peptide for 24 hrs. […] The amount of LDH in the medium was determined using a LDH cytotoxicity detection kit (Sigma, TOX7) according to the manufacturer's instructions. The absorbance at 490 nm was determined using a microplate reader (μQuant, Bio-TEK instruments), which was adjusted by background reading deduction.
# T1 sequence (F1LNN8 1-1430): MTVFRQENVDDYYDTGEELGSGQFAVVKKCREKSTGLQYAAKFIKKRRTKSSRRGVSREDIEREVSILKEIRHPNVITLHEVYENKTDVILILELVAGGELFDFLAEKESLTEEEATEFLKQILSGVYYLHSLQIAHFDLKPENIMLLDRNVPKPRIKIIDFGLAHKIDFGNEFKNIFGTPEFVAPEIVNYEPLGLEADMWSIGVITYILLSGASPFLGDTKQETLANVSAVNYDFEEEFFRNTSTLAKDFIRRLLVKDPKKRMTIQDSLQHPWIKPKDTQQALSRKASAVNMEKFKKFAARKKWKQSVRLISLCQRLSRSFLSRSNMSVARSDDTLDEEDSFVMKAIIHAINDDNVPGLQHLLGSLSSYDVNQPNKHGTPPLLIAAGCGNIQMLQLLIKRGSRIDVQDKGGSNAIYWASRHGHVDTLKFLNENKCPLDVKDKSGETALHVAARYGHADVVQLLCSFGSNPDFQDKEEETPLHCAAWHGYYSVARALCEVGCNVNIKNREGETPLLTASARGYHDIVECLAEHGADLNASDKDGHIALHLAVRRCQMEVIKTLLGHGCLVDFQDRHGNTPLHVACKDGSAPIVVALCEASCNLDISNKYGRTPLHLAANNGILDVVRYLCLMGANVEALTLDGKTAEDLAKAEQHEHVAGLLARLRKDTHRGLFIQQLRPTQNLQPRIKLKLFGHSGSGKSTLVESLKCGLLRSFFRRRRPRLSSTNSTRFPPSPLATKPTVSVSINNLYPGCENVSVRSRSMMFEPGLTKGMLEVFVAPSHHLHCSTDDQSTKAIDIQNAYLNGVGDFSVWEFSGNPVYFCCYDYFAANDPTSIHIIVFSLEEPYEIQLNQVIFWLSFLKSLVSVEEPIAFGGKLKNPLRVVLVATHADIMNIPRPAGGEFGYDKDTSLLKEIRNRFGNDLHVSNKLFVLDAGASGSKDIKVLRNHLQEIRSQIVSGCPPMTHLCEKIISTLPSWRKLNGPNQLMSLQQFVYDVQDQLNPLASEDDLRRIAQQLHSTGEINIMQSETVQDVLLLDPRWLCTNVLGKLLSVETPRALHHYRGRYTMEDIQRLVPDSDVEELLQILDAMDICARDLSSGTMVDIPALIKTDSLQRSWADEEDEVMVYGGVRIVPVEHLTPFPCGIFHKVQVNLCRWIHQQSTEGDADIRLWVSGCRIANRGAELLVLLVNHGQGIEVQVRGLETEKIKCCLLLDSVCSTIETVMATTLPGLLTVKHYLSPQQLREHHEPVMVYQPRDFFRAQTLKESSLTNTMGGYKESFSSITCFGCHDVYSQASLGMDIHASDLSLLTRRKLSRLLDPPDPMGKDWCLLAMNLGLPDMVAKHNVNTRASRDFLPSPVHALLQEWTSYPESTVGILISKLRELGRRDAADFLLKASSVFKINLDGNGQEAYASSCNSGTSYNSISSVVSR
compound,measurement,setting,value
"YGRKKRRQRRRKKNRNKLRRQHSY [TAT-NR2B, CTS-lacking control peptide, reference compound]",effect on DAPK1 level after NMDA treatment,[1],did not affect DAPK1 levels
same,effect on DAPK1 levels in brain tissues (immunoblot),[2],no obvious change
same,ischemic damage / infarct areas (H&E staining),[3],partially decreased ischemic damage
"N[C@H](CCCP(=O)(O)O)C(=O)O [APV, (2R)-amino-5-phosphonopentanoic acid]",neuronal death (LDH) normalized to naïve non-treated control (set as 1),"[4]; 50 μM, 12 hours after treatment",2.16±13.8
catalase,neuronal death (LDH) normalized to naïve non-treated control (set as 1),"[4]; catalase added, 12 hours",1.17±1.76
